Reference: patent US9394297B2, “Amides as pim inhibitors” (AMGEN INC., priority 2012, dated 2016)
Read-outs that look alike come from different tables or passages of the source.

Key:
Pim-1 [1] = molecular target: T1, Pim-1 (Homo sapiens (Human), UniProt P11309); experiment: Pim enzyme assay (HTRF, 96-well), Pim-1; assay type: biochemical; conditions: full length recombinant Pim-1, biotinylated-BAD (S112) peptide, 10-point curve, 2 h RT, read-out: Pim-1 IC50 IP
From the text: These cDNAs were used as templates in PCR reactions to produce full-length DNA clones of the PIMs. […] PCR products were digested with BclI and EcoRI for Pim-1 and BamHI and EcoRI for Pim-2 and ligated into a modified baculovirus transfer vector (pFastBac1) cleaved with BamHI and EcoRI. For bacterial expression, the same cleaved PCR products encoding Pim-1 or Pim-2 were ligated into a modified E. coli expression vector pET28(a) cleaved with BamHI and EcoRI. Amino-terminal hexahistidine tags followed by a thrombin cleavage site were previously added to the vectors using standard methods of molecular biology.
Recombinant baculoviruses expressing Pim-1 or Pim-2 were made using standard methods (Fastbac manual, Invitrogen, Carlsbad, Calif.). […] Cells were harvested by centrifugation and frozen at −80 C. For E. coli expression, cells carrying pET28-His6-Th-Pim-1 or pET28-His6-Th-Pim-2 were picked from a single colony and grown o/n in LB media. The o/n culture was used to inoculate a 2 liter flask with 500 mL media. This was grown o/n and used to inoculate 15-20 liters of Terrific Broth in a New Brunswick Scientific fermentor. The E. coli were grown at 37° C. to and OD600 >1.6. The temperature was dropped to 18° C. and o/n expression was induced with 0.5 mM IPTG. Cells were harvested by centrifugation and frozen at −80° C.
The slurry was centrifuged at 1,000×g for 5 min, the supernatant decanted, and the resin suspended in 40 mL of lysis wash buffer (lysis buffer at 0.75 M NaCl). This step was repeated 3× and the resin was transferred to a 2.5 cm glass column. Ten column volumes of wash buffer (0.05 M HEPES, pH 8.0, 0.1 M NaCl, 0.01 M 2-mercaptoethanol, 10%(w/v) glycerol) were applied to the resin followed by 10 column volumes of elution buffer (0.05 M HEPES, pH 8.0, 0.25 M NaCl, 0.01 M 2-mercaptoethanol, 10%(w/v) glycerol, 0.1 M imidazole). Fractions were analyzed by SDS-PAGE and those containing the protein of interest were pooled and concentrated. The concentrated protein was applied to an Amersham Superdex 75 (XK 26/60) column equilibrated in 0.025 M Tris-HCl, pH 7.5, 0.1 M NaCl, 0.01 M 2-mercaptoethanol, 10% (w/v) glycerol. […] Fractions containing the monomeric protein of interest were pooled, concentrated to ˜2 mg/mL, and stored at −80° C.
The phosphorylation of biotinylated-BAD (S112) peptide by full length recombinant Pim-1, Pim-2, or Pim-3 protein was detected with streptavidin:Allophycocyanin (APC) conjugate and a europium (Eu) labeled antibody directed against phosphorylated-BAD (S112). […] The fluorescence is directly proportional to the amount of phosphorylated BAD peptide present in the reaction. […] A reference compound was included on each assay plate in order to validate that plate; on one plate of every assay run, two additional reference compounds were included. The final buffer conditions were as follows: 60 mM Hepes, pH 7.0, 0.05% BSA, 2 mM DTT. Incubations were carried out at RT (22° C.) for 2 h for Pim-1, 1 hour and 30 min for Pim-3, and 45 min for Pim-2. The reaction was stopped by the addition of 3 mM EDTA, and fluorescence was measured by an HTRF® Rubystar microplate reader. For each plate, percent of control (POC) values were calculated for each well. Values for the IC50 IP were estimated using a standard 4-parameter logistic model.

KMS-12-BM cell lines = experiment: KMS12 #2 flow cytometry assay (phospho-BAD Ser112); assay type: cell-based; conditions: Homo sapiens, KMS-12-BM, 110 min, read-out: KMS-12-Flow IC50 IP
[2] = system: KMS-12-BM myeloma cell line; experiment: Pim KMS-12 cell assay (phospho-BAD S112 / total BAD, MSD); conditions: Homo sapiens, KMS-12-BM
Pim-2 = Pim-2 (Homo sapiens (Human), UniProt Q9P1W9); experiment: Pim-Mn enzyme assay (HTRF, 384-well), Pim-2; assay type: biochemical; conditions: Pim-2 enzyme 0.5 pM, ATP 1.5 μM, BAD (S112) 0.5 μM, HTRF, 22-point curve; read-out: Pim-2-Mn IC50 IP
Pim-2, sequence (Q9P1W9 whole entry): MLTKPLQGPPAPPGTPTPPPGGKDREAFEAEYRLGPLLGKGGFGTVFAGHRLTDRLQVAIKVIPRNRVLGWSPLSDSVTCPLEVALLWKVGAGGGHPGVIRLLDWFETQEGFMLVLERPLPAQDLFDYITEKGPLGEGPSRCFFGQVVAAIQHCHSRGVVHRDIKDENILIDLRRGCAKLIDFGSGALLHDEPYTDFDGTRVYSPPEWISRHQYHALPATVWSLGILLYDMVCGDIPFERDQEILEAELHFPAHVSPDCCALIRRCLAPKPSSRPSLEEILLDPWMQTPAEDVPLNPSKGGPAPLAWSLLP

Pim-1 [3] = molecular target: T1, Pim-1; experiment: Pim-Mn enzyme assay (HTRF, 384-well), Pim-1; assay type: biochemical; conditions: Pim-1 enzyme 5 pM, ATP 1.5 μM, BAD (S112) 0.5 μM, HTRF, 22-point curve; read-out: Pim-1-Mn IC50 IP
[4] = read-out: KMS-12-BM IC50 IP, KMS-12-BM cells, phospho-BAD (S112) vs total BAD, 1 hour 50 min with compound

T1 sequence (P11309 whole entry): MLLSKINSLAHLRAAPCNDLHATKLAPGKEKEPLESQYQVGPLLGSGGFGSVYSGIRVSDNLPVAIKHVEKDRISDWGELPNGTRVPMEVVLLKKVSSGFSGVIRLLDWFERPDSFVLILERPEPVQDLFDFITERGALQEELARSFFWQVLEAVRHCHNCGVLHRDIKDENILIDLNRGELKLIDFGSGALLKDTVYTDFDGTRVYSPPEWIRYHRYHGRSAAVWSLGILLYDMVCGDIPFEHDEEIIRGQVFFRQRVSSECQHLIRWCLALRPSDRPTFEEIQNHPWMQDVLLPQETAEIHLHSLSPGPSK

| SMILES | IC50 (Pim-1 [1]) | IC50 (KMS-12-BM cell lines) | IC50 ([2]; read-out: KMS-12-BM IC50 IP) | IC50 (Pim-2) | IC50 (Pim-1 [3]) | IC50 [2, 4] |
| --- | --- | --- | --- | --- | --- | --- |
| CN1CCN(C(=O)c2ccc3cccc(-c4cc5c([nH]4)CCNC5=O)c3n2)CC1 [Example 97, 2-(2-(4-methylpiperazine-1-carbonyl)quinolin-8-yl)-6,7-dihydro-1H-pyrrolo[3,2-c]pyridin-4(5H)-one] | 227 nM | – | – | – | – | – |
| Cc1nc2ccc(F)c(-c3cc4c([nH]3)CCNC4=O)c2nc1NC(C)(C)C [Example 286, 2-(3-(tert-butylamino)-6-fluoro-2-methylquinoxalin-5-yl)-6,7-dihydro-1H-pyrrolo[3,2-c]pyridin-4(5H)-one] | – | 28.2 nM | 143 nM | 0.305 nM | 0.289 nM | – |
| CCC1CNC(=O)c2cc(-c3cccc4ccc(Cl)nc34)[nH]c21 (racemic) [Example 22, rac-2-(2-chloroquinolin-8-yl)-7-ethyl-6,7-dihydro-1H-pyrrolo[3,2-c]pyridin-4(5H)-one] | 60.9 nM | – | – | – | – | – |
| CCC1CNC(=O)c2cc(-c3cccc4cc(C)c(Nc5ccccc5)nc34)[nH]c21 (single isomer, unassigned) [Example 117, 7-ethyl-2-(3-methyl-2-(phenylamino)quinolin-8-yl)-6,7-dihydro-1H-pyrrolo[3,2-c]pyridin-4(5H)-one] | 0.6 nM | – | – | – | – | 3150 nM |
| Cn1cc(-c2cccc3ccc(Nc4ccccc4)nc23)cc1C(N)=O [Example 164, 1-methyl-4-(2-(phenylamino)quinolin-8-yl)-1H-pyrrole-2-carboxamide] | 243 nM | – | – | – | – | – |
| O=C1NCCc2[nH]c(-c3c(F)ccc4ccc(NC5CCCCC5)nc34)cc21 [Example 90, 2-(2-(cyclohexylamino)-7-fluoroquinolin-8-yl)-6,7-dihydro-1H-pyrrolo[3,2-c]pyridin-4(5H)-one] | 340 nM | – | – | – | – | – |
| O=C1NCCn2cc(-c3cccc4ccc(C(=O)N5CCCC5)nc34)cc21 [Example 168, 7-(2-(pyrrolidine-1-carbonyl)quinolin-8-yl)-3,4-dihydropyrrolo[1,2-a]pyrazin-1(2H)-one] | 608 nM | – | – | – | – | – |
| COCCNC(=O)c1ccc2cccc(-c3cc4c([nH]3)CCNC4=O)c2n1 [Example 96, N-(2-methoxyethyl)-8-(4-oxo-4,5,6,7-tetrahydro-1H-pyrrolo[3,2-c]pyridin-2-yl)quinoline-2-carboxamide] | 283 nM | – | – | – | – | – |
| CCC1CNC(=O)c2cc(-c3cccc4ccc(Oc5ccccc5)nc34)[nH]c21 (racemic) [Example 23, rac-7-ethyl-2-(2-phenoxyquinolin-8-yl)-6,7-dihydro-1H-pyrrolo[3,2-c]pyridin-4(5H)-one] | 14.1 nM | – | – | – | – | – |
| O=C(NC1CC1)c1ccc2cccc(-c3cc4c([nH]3)CCNC4=O)c2n1 [Example 94, N-cyclopropyl-8-(4-oxo-4,5,6,7-tetrahydro-1H-pyrrolo[3,2-c]pyridin-2-yl)quinoline-2-carboxamide] | 269 nM | – | – | – | – | – |
| CC(C)CC1CNC(=O)c2cc(-c3cccc4cccnc34)[nH]c21 (racemic) [Example 125, rac-7-isobutyl-2-(quinolin-8-yl)-6,7-dihydro-1H-pyrrolo[3,2-c]pyridin-4(5H)-one] | 41.8 nM | – | – | 278 nM | 21.1 nM | – |
| Cc1nc2cccc(-c3cc4c([nH]3)CCNC4=O)c2nc1NC1CCCCCC1 [Example 134, 2-(3-(cycloheptylamino)-2-methylquinoxalin-5-yl)-6,7-dihydro-1H-pyrrolo[3,2-c]pyridin-4(5H)-one] | 8.9 nM | – | – | – | – | – |
| O=C(Nc1ccccc1)c1ccc2cccc(-c3cc4c([nH]3)CCNC4=O)c2n1 [Example 95, 8-(4-oxo-4,5,6,7-tetrahydro-1H-pyrrolo[3,2-c]pyridin-2-yl)-N-phenylquinoline-2-carboxamide] | 222 nM | – | – | – | – | – |
| CNc1nc2c(-c3cc4c([nH]3)CCNC4=O)cccc2nc1C [Example 219, 2-(2-methyl-3-(methylamino)quinoxalin-5-yl)-6,7-dihydro-1H-pyrrolo[3,2-c]pyridin-4(5H)-one] | – | – | – | 4.1 nM | 7.8 nM | 346 nM |
| Cc1nc2cccc(-c3cc4c([nH]3)CCNC4=O)c2nc1N(C)C(C)C [Example 68, 2-(2-methyl-3-(methyl(1-methylethyl)amino)-5-quinoxalinyl)-1,5,6,7-tetrahydro-4H-pyrrolo[3,2-c]pyridin-4-one] | – | – | – | 6.1 nM | 4.5 nM | 445 nM |
| CC1(C)CN(c2cnc3cccc(-c4cc5c([nH]4)CCNC5=O)c3n2)CCN1 [Example 214, 2-(3-(3,3-dimethylpiperazin-1-yl)quinoxalin-5-yl)-6,7-dihydro-1H-pyrrolo[3,2-c]pyridin-4(5H)-one] | – | – | – | 58 nM | 4.7 nM | 9870 nM |
| Cc1nc2cccc(-c3cc4c([nH]3)CCNC4=O)c2nc1SC(C)(C)C [Example 221, 2-(3-(tert-butylthio)-2-methylquinoxalin-5-yl)-6,7-dihydro-1H-pyrrolo[3,2-c]pyridin-4(5H)-one] | – | – | – | 4.3 nM | 3.1 nM | 750 nM |
| Cc1nc2cccc(-c3cc4c([nH]3)CCNC4=O)c2nc1N[C@@H](C)C1CC1 [Example 270, 2-(3-(((1S)-1-cyclopropylethyl)amino)-2-methyl-5-quinoxalinyl)-1,5,6,7-tetrahydro-4H-pyrrolo[3,2-c]pyridin-4-one] | – | – | – | 1.4 nM | 2.2 nM | 215 nM |
| Cc1nc2cccc(-c3cc4n(c3)CCNC4=O)c2nc1NC1(C)CC1 [Example 100, 7-(2-methyl-3-((1-methylcyclopropyl)amino)quinoxalin-5-yl)-3,4-dihydropyrrolo[1,2-a]pyrazin-1(2H)-one 2,2,2-trifluoroacetate] | – | – | – | 0.961 nM | 1.34 nM | 144 nM |
| CN(c1cnc2cccc(-c3cc4c([nH]3)CCNC4=O)c2n1)C(C)(C)C [Example 215, 2-(3-(tert-butyl(methyl)amino)quinoxalin-5-yl)-6,7-dihydro-1H-pyrrolo[3,2-c]pyridin-4(5H)-one] | – | – | 153 nM | 0.7 nM | 0.6 nM | – |
| Cc1nc2cccc(-c3cc4c([nH]3)CCNC4=O)c2nc1NCC(C)(C)N [Example 70, 2-(3-((2-amino-2-methylpropyl)amino)-2-methyl-5-quinoxalinyl)-1,5,6,7-tetrahydro-4H-pyrrolo[3,2-c]pyridin-4-one] | – | – | – | 6.3 nM | 4.3 nM | 2910 nM |
| Cc1nc2cccc(-c3cc4c([nH]3)CCNC4=O)c2nc1NC1(CO)CC1 [Example 277, 2-(3-((1-(hydroxymethyl)cyclopropyl)amino)-2-methyl-5-quinoxalinyl)-1,5,6,7-tetrahydro-4H-pyrrolo[3,2-c]pyridin-4-one] | – | – | – | 0.4 nM | 1 nM | 169 nM |
| Cc1nc2cccc(-c3cc4c(=O)[nH]cnc4[nH]3)c2nc1NC(C)(C)CO [Example 263, 6-(3-((1-hydroxy-2-methylpropan-2-yl)amino)-2-methylquinoxalin-5-yl)-3H-pyrrolo[2,3-d]pyrimidin-4(7H)-one] | – | – | – | 5.8 nM | 5.1 nM | 907 nM |
